What was measured:
Set-up in all cases: species or system S. pombe
[1] = system: Seb1 SUMO-RRM388-540 S492A; test: FA, SUMO-RRM S492A binding to RNA; conditions: SUMO-RRM388-540 S492A vs WT (Fig. 3e)
Experimental: (§1) Recombinant WT and mutated RRM388−540 of Seb1 with an N-terminal His6-SUMO tag were expressed from modified pOPINS3C expression vector[69] in pLysS E. coli strain. For FA assays, protein eluted from NiNTA was further purified on a HiLoad 16/60 Superdex 200 prep grade column (GE Healthcare) using an ÄKTA purifier (GE Healthcare) in 50 mM Tris pH 8.0 and 200 mM NaCl, and fractions containing the Seb1-RRM388−540 concentrated to ∼5 mg ml^−1. For crystallization and SAXS, the NiNTA eluted fractions were buffer exchanged into 50 mM Tris pH 7.5, 300 mM NaCl and 500 mM NDSB-201 using a PD-10 column (GE Healthcare) and cleaved with 3C protease (Sigma-Aldrich) at room temperature overnight. […]
(§2) For Seb1-CID1–152, binding to 75 nM of two-repeat CTD peptides containing an N-terminal 5′-fluorescein amidite (FAM)-tag (Peptides&elephants, Potsdam, Germany) was determined in 25 mM HEPES pH 7.3, 200 mM NaCl and 1 mM EDTA. For RRM388–540, binding was determined to 40 nM FAM-AUUAGUAAAA RNA (Eurofins) in 25 mM Tris-HCl pH 8.0, 100 mM NaCl, 2 mM MgCl2, 1 mM DTT, 16.7% (v/v) glycerol, 0.1% IGEPAL, 0.1 mg ml^−1 tRNA and 2.5% (v/v) RNasin (Promega). Excitation of the ligand was performed with linearly polarized light at 485 nm and emission was measured at 520 nm in parallel and perpendicular planes to the emission plane at 25 °C using a FLUOstar-Omega microplate reader (BMG-Labtech). […]

[2] = system: Seb1 SUMO-RRM388-540 F445A; test: FA, SUMO-RRM F445A binding to RNA; conditions: for effect on RNA binding, F445A: FA, SUMO-RRM388-540 F445A vs WT (Fig. 3e)
Experimental: Recombinant WT and mutated RRM388−540 of Seb1 with an N-terminal His6-SUMO tag were expressed from modified pOPINS3C expression vector[69] in pLysS E. coli strain. For FA assays, protein eluted from NiNTA was further purified on a HiLoad 16/60 Superdex 200 prep grade column (GE Healthcare) using an ÄKTA purifier (GE Healthcare) in 50 mM Tris pH 8.0 and 200 mM NaCl, and fractions containing the Seb1-RRM388−540 concentrated to ∼5 mg ml^−1. For crystallization and SAXS, the NiNTA eluted fractions were buffer exchanged into 50 mM Tris pH 7.5, 300 mM NaCl and 500 mM NDSB-201 using a PD-10 column (GE Healthcare) and cleaved with 3C protease (Sigma-Aldrich) at room temperature overnight. His6-SUMO tag was removed using NiNTA beads and the cleaved RRM388−540 was further purified on a Superdex 75 10/100 GL column (GE Healthcare) in 20 mM HEPES pH 7.3, 150 mM NaCl and 500 mM NDSB-201. For crystallization trials, the eluted protein was concentrated to ∼8.7 mg ml^−1, for SAXS to ∼5 mg ml^−1.
For Seb1-CID1–152, binding to 75 nM of two-repeat CTD peptides containing an N-terminal 5′-fluorescein amidite (FAM)-tag (Peptides&elephants, Potsdam, Germany) was determined in 25 mM HEPES pH 7.3, 200 mM NaCl and 1 mM EDTA. For RRM388–540, binding was determined to 40 nM FAM-AUUAGUAAAA RNA (Eurofins) in 25 mM Tris-HCl pH 8.0, 100 mM NaCl, 2 mM MgCl2, 1 mM DTT, 16.7% (v/v) glycerol, 0.1% IGEPAL, 0.1 mg ml^−1 tRNA and 2.5% (v/v) RNasin (Promega). Excitation of the ligand was performed with linearly polarized light at 485 nm and emission was measured at 520 nm in parallel and perpendicular planes to the emission plane at 25 °C using a FLUOstar-Omega microplate reader (BMG-Labtech). All measurements were performed in at least duplicates, results were plotted against the protein concentration and Kd values were determined via curve fitting as described in ref. [70].

[3] = system: Seb1 SUMO-RRM388-540 R472E; test: FA, SUMO-RRM R472E binding to RNA; conditions: SUMO-RRM388-540 R472E vs WT (Fig. 3e)
Experimental: as §1, §2

[4] = system: Seb1 SUMO-RRM388-540 F487A; test: FA, SUMO-RRM F487A binding to RNA; conditions: SUMO-RRM388-540 F487A vs WT (Fig. 3e)
Experimental: as §1, §2

With “AUUAGUAAAA (chemistry not fully specified) [RNA: AUUAGUAAAA]” the “effect on RNA binding, S492A” value [1] was “only a mild effect on binding”, the “effect on RNA binding, F445A” value ([2]; listed as FAM-labelled 10 nt-RNA) was “completely abolishes RNA binding” and the “effect on RNA binding, F445A” value ([2]; listed as RNA) was “abolishes the interaction completely”. For the same sequence, the Kd ([2]; fluorescence anisotropy, SUMO-RRM F445A, 40 nM FAM-RNA, Tris-HCl pH 8.0, 100 mM NaCl, 2 mM MgCl2, 25 °C, three technical replicates) was greater than 1 mM, the “effect on RNA binding, R472E” value [3] was “completely abolishes RNA binding” and the “effect on affinity to RNA, F487A” value [4] was “severely reduces the affinity to RNA”.
